We go through 14 molecules from US8399676B2, “Piperidine derivatives” (Hoffman-La Roche Inc., priority 2009, dated 2013).

Molecules are shown by their SMILES. Counter-ions that a name gives are not always drawn.

This experiment addresses T1, human HSL (Homo sapiens, UniProt Q05469).
T1 construct: generate a full length human HSL ORF with a 3′-His6 tag; His6 (C); made in house; host or cells: High 5 insect cells (baculovirus, pFast-BAC)
T1 sequence (Q05469 1-1076): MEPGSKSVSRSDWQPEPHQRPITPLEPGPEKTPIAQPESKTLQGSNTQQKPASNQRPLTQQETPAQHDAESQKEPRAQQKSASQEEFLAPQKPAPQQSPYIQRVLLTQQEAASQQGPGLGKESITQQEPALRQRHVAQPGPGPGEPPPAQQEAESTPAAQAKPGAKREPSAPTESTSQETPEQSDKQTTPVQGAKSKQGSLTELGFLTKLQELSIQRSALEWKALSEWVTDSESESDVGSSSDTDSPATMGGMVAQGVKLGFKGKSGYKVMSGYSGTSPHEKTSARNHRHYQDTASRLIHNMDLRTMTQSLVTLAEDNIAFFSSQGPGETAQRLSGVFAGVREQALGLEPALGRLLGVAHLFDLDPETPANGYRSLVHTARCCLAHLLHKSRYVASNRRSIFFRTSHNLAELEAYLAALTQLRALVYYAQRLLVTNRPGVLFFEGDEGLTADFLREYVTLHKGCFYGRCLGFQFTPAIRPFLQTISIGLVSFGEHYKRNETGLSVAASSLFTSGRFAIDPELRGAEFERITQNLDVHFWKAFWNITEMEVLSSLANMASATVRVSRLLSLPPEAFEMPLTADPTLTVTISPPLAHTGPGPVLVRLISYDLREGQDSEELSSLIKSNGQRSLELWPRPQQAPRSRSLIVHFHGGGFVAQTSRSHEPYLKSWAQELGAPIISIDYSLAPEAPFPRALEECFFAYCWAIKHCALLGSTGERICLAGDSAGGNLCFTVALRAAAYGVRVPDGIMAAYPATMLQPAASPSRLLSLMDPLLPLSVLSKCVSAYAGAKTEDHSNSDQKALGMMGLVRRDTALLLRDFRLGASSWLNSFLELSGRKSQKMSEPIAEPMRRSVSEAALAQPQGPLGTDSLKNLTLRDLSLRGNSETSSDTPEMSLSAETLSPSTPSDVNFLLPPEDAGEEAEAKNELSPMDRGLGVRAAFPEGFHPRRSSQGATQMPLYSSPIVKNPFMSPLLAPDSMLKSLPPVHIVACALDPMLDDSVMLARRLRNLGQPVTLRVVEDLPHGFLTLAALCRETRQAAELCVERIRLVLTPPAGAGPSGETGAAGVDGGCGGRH
Put plainly: Human Hormone-Sensitive Lipase (HSL) enzyme inhibition assay (colorimetric, DMPT substrate). In kind it is biochemical. Particulars: read-out: HSL hum IC50. Here is the method:
Production of Human Full Length Hormone Sensitive Lipase-His^6
1) Cloning: cDNA was prepared from commercial human brain polyA+ RNA and used as a template in overlapping PCR to generate a full length human HSL ORF with a 3′-His6 tag. This full length insert was cloned into the pFast-BAC vector and the DNA-sequence of several single clones was verified. DNA from a correct full length clone with the 3′His6 tag was used to transform the E. coli strain DH10BAC. Resulting bacmid DNA was used to generate a titered baculovirus stock for protein generation. The sequence of the encoded HSL conforms to Swissprot entry Q05469, with the additional C-terminal His6-tag.
2) Protein purification: Culture: 5.5 L, High 5 cells expressing human full length HSL-His^6, 48 hr., containing 25 μM E-64. Cell count: […], 90% viable.
Cells were thawed. On ice, cells were suspended in Base Buffer containing 10% glycerol, 25 mM Tris-Cl, 300 mM NaCl, 10 mM imidazole, 10 mM 2-mercaptoethanol, 2 μg pepstatin/ml, 2 μg leupeptin/ml, 2 μg antipain/ml, pH 8.0 at 4° C. in a final volume of 475 ml with 3.75×10^7 cells/ml. […] was done at 3×30 sec., Lubrol PX was added to 0.2% final concentration followed by stirring for 15 min. at 4° C. and centrifugation at 25 k×g, 60 min., 4° C. Soluble proteins were mixed with 60 ml of pre-washed and equilibrated Ni-NTA Agarose (Qiagen 30210) followed by tumbling end-over-end, 45 min., 4° C., centrifugation 1000 rpm 5 min and letting resin settle 5 min. Supernatant was removed, the resin washed in the centrifuge vessel using 5 volumes of Base Buffer containing 0.2% Lubrol PX. Centrifugation was done again, then the supernatant discarded. The resin was poured onto a 0.8 μm membrane in a disposable filter unit (Nalge 450-0080), and washed with 5 volumes of Base Buffer containing 0.2% Lubrol PX. It was then washed with 30 volumes of Base Buffer containing 60 mM imidazole pH 7.5 at 4° C. The protein was eluted with 5 volumes of 25 mM Tris-Cl, 300 mM NaCl, 200 mM imidazole, 10 mM 2-mercaptoethanol, pH 7.5 at 4° C. by tumbling resin with buffer end-over-end, 30 min., 4° C. The resin was captured on a 0.2 μm membrane disposable filter unit (Millipore SCGP U02 RE) and the elute collected in the reservoir. The elute was concentrated using a 30 k MWCO centrifugal filter device (Sartorius Vivascience Vivacell 100, VC1022), to 20 ml. It was then dialyzed overnight at 4° C., two times against 2 L of 10% glycerol, 25 mM Tris-Cl, 300 mM NaCl, 0.2 mM EDTA, 0.2 mM DTT, pH 7.5 at 4° C. The protein was filtered using a 0.22 μm disposable filter unit (Millipore SCGP00525). The protein concentration was calculated from absorbance at 280 nm, using 280=0.67 cm-1 mg-1. Yield was 235 mg, total. The protein was stored at −80° C. Human Hormone-Sensitive Lipase (HSL) enzyme inhibition assay:
HSL enzyme activity was measured by a colorimetric assay using 2,3-dimercapto-1-propanol tributyrate (Aldrich, St. Louis, Mo.) as a substrate. Typically, 1.5 mM 2,3-dimercapto-1-propanol tributyrate (DMPT) in 100 mM MOPS, pH 7.2, 0.2 mg/ml fatty acid-free BSA was prepared by sonication at 4° C. to homogenous suspension. Test compounds (2 mM stock in DMSO) were diluted 3 fold in series in DMSO. Compound solutions were diluted 24 fold in 1.5 mM DMPT containing solution and 18 ul per well was added to 384-well microplates (Corning Costar). Twelve microliters per well of human HSL (15 ug/ml) was added and the reaction mixture was incubated at 37° C. for 20 minutes. Six microliters of 12 mM dithio-bis-(2-nitrobenzoic acid) (DTNB) in DMSO plus 1.2% SDS and 0.6% Triton X-100 were added and the mixture was incubated at room temperature for 15 minutes. Product production was monitored by reading absorbance at 405 nm on an Envision Reader (PerkinElmer Life and Analytical Sciences, Shelton, Conn.).
`CC(C)c1ccc(NC(=O)C2(N)CCN(S(=O)(=O)c3ccccc3Cl)CC2)cc1` [Example 116, 4-Amino-1-(2-chloro-benzenesulfonyl)-piperidine-4-carboxylic acid (4-isopropyl-phenyl)-amide; hydrochloride]: the IC50 was 40 nM.

In the case of `CC(C)c1ccc(NC(=O)C2(N)CCN(C(=O)c3ccc(F)cc3)CC2)cc1` [Example 127, 4-Amino-1-(4-fluoro-benzoyl)-piperidine-4-carboxylic acid (4-isopropyl-phenyl)-amide], the IC50 was 490 nM.

Take `CC(C)c1ccc(NC(=O)C2(N)CCN(Cc3ccc(C(F)(F)F)cc3)CC2)cc1` [Example 112, 4-Amino-1-(4-trifluoromethyl-benzyl)-piperidine-4-carboxylic acid (4-isopropyl-phenyl)-amide; hydrochloride]: the IC50 worked out at 300 nM.

As for `Cc1ccc(NC(=O)C2(N)CCN(C(=O)Nc3ccc(C(C)(C)C)cc3)CC2)cc1` [Example 88, 4-Amino-piperidine-1,4-dicarboxylic acid 1-[(4-tert-butyl-phenyl)-amide]-4-p-tolylamide; hydrochloride], the IC50 was 370 nM.

For `CC(C)(C)c1ccc(NC(=O)N2CCC(N)(C(=O)Nc3ccc(F)cc3)CC2)cc1` [Example 87, 4-Amino-piperidine-1,4-dicarboxylic acid 1-[(4-tert-butyl-phenyl)-amide]-4-[(4-fluoro-phenyl)-amide]; hydrochloride], the IC50 was determined as 780 nM.

As to `CC(C)c1ccc(NC(=O)C2(N)CCN(S(=O)(=O)c3ccccc3Cl)CC2)cn1` [Example 101, 4-Amino-1-(2-chloro-benzenesulfonyl)-piperidine-4-carboxylic acid (6-isopropyl-pyridin-3-yl)-amide], the half-maximal inhibitory concentration (IC50) amounted to 190 nM.

For `CCc1ccc(NC(=O)C2(N)CCN(S(=O)(=O)c3ccccc3)CC2)cc1` [Example 133, 4-Amino-1-benzenesulfonyl-piperidine-4-carboxylic acid (4-ethyl-phenyl)-amide], the IC50 stood at 90 nM.

With `CC(C)c1ccc(NC(=O)C2(N)CCN(S(=O)(=O)c3cccc(Cl)c3)CC2)cc1` [Example 117, 4-Amino-1-(3-chloro-benzenesulfonyl)-piperidine-4-carboxylic acid (4-isopropyl-phenyl)-amide], the IC50 turned out to be 110 nM.

In the case of `CCc1ccc(NC(=O)C2(N)CCN(Cc3ccccc3C(F)(F)F)CC2)cc1` [Example 157, 4-Amino-1-(2-trifluoromethyl-benzyl)-piperidine-4-carboxylic acid (4-ethyl-phenyl)-amide], the IC50 came to 180 nM.

As for `Cc1ccccc1S(=O)(=O)N1CCC(O)(C(=O)N(C)c2ccc(OC(F)(F)F)cc2)CC1` [Example 68, 4-Hydroxy-1-(toluene-2-sulfonyl)-piperidine-4-carboxylic acid methyl-(4-trifluoromethoxy-phenyl)-amide], the IC50 turned out to be 100 nM.

Regarding `CCc1ccc(NC(=O)C2(N)CCN(S(=O)(=O)c3ccccc3Cl)CC2)cc1` [Example 93, 4-Amino-1-(2-chloro-benzenesulfonyl)-piperidine-4-carboxylic acid (4-ethyl-phenyl)-amide], the IC50 turned out to be 40 nM.

`CCc1ccc(NC(=O)C2(N)CCN(S(=O)(=O)c3ccc(C)cc3)CC2)cc1` [Example 81, 4-Amino-1-(toluene-4-sulfonyl)-piperidine-4-carboxylic acid (4-ethyl-phenyl)-amide]: the half-maximal inhibitory concentration (IC50) amounted to 120 nM.

As to `CC(C)(C)c1ccc(NC(=O)C2(O)CCN(Cc3ccc(C(F)(F)F)cc3)CC2)cc1` [Example 20, 4-Hydroxy-1-(4-trifluoromethyl-benzyl)-piperidine-4-carboxylic acid (4-tert-butyl-phenyl)-amide], the IC50 amounted to 320 nM.

Turning to `CC(C)c1ccc(NC(=O)C2(O)CCN(Cc3ccccc3)CC2)cc1` [Example 1, 1-Benzyl-4-hydroxy-piperidine-4-carboxylic acid (4-isopropyl-phenyl)-amide], the half-maximal inhibitory concentration (IC50) was determined as 460 nM.
